For 4 compounds, MIC results are on record in DBAASP.

≈ marks a conversion by molar mass, not a printed value. Some results are limits rather than exact numbers.

Test systems include Acinetobacter junii RT-4; Bacillus megaterium Bm11; Escherichia coli D21; Saccharomyces cerevisiae; Staphylococcus capitis 1; Candida albicans; Candida krusei ATCC 6258; Candida krusei; Candida parapsilosis; Candida tropicalis; Enterococcus faecium; Escherichia coli O157; Pseudomonas aeruginosa 1; Pseudomonas aeruginosa 2; Pseudomonas aeruginosa 5; Staphylococcus aureus 1; Staphylococcus aureus 4; Staphylococcus aureus 5; Staphylococcus aureus.

What all share (experiment): ≥ marks a high value that may be exact or a test limit, other limits are often not marked, values filed in µg/mL are converted to µM
Experiment [1] has as its system Acinetobacter baumannii ATCC 19606.
Experiment [2] relates to Candida albicans ATCC 10231.
The test system of experiment [3] is Enterococcus faecalis ATCC 29212.
The subject of experiment [4] is Escherichia coli ATCC 25922.
Experiment [5] deals with Pseudomonas aeruginosa ATCC 15692.
The test system of experiment [6] is Pseudomonas aeruginosa ATCC 27853.
The subject of experiment [7] is Pseudomonas syringae pv. tabaci 1918NCPPB.
In experiment [8] the test system is Schizosaccharomyces pombe.
The subject of experiment [9] is Staphylococcus aureus ATCC 25923.
Experiment [10] has as its system Staphylococcus aureus Cowan 1.
Experiment [11] concerns Staphylococcus epidermidis ATCC 12228.
The test system of experiment [12] is Streptococcus pyogenes ATCC 21547.
Experiment [13] relates to Yersinia pseudotuberculosis YPIII.
Experiment [14] concerns Candida albicans ATCC 90028.
The test system of experiment [15] is Candida parapsilosis ATCC 22019.
Experiment [16] has as its system Candida tropicalis B51a/5.
Experiment [17] has as its system Enterobacter cloacae HNTCC 53001.
In experiment [18] the test system is Klebsiella pneumoniae KK3 9904.
In experiment [19] the test system is Proteus mirabilis ATCC 25933.
The test system of experiment [20] is Staphylococcus epidermidis RP62A.
For experiment [21], the system named is Bacillus subtilis ATCC 6633.
The test system of experiment [22] is Enterococcus faecalis ATCC 12953.
Experiment [23] deals with Escherichia coli ATCC 8739.
Experiment [24] has as its system Klebsiella pneumoniae ATCC 13885.
Experiment [25] concerns Pseudomonas aeruginosa ATCC 15442.
The test system of experiment [26] is Salmonella enterica subsp. enterica serovar Typhimurium ATCC 14028.
In experiment [27] the test system is Staphylococcus aureus ATCC 29213.
Experiment [28] concerns Streptococcus pyogenes ATCC 19615.

As to `CC[C@H](C)[C@H](NC(=O)[C@H](CCCN=C(N)N)NC(=O)CNC(=O)[C@H](CC(C)C)NC(=O)[C@H](Cc1ccccc1)NC(=O)[C@H](CCCCN)NC(=O)[C@H](CO)NC(=O)[C@H](Cc1ccccc1)NC(=O)[C@H](Cc1c[nH]c2ccccc12)NC(=O)[C@H](CCCN=C(N)N)NC(=O)[C@@H](NC(=O)[C@@H](N)Cc1ccccc1)C(C)C)C(=O)N[C@@H](CC(C)C)C(N)=O` [FVRWFSKFLGRIL], the MIC in experiment [1] worked out at 6 µM (≈ 10 µg/mL); in the experiment on Acinetobacter junii RT-4, 3 µM (≈ 5 µg/mL); with Bacillus megaterium Bm11, 3 µM (≈ 5 µg/mL); in experiment [2] it was 12 µM (≈ 20 µg/mL); in experiment [3] it was 12 µM (≈ 20 µg/mL); in experiment [4] it was 24 µM (≈ 40 µg/mL). Besides, the MIC in the experiment with Escherichia coli D21 stood at 12 µM (≈ 20 µg/mL); in [5] it was 12 µM (≈ 20 µg/mL); in experiment [6], 24 µM (≈ 40 µg/mL); in [7] it was 6 µM (≈ 10 µg/mL); against Saccharomyces cerevisiae, 24 µM (≈ 40 µg/mL); in experiment [8] it was 12 µM (≈ 20 µg/mL). The MIC in [9] is 6 µM (≈ 10 µg/mL); in [10], 6 µM (≈ 10 µg/mL); against Staphylococcus capitis 1 it was 3 µM (≈ 5 µg/mL); in experiment [11], 3 µM (≈ 5 µg/mL); in [12], 3 µM (≈ 5 µg/mL); in experiment [13], 3 µM (≈ 5 µg/mL).
`CC[C@H](C)[C@H](NC(=O)[C@@H]1CCCN1C(=O)[C@H](CC(C)C)NC(=O)[C@@H](N)Cc1ccccc1)C(=O)N[C@@H](CC(C)C)C(=O)N[C@@H](C)C(=O)N[C@@H](CO)C(=O)N[C@@H](CC(C)C)C(=O)N[C@@H](C)C(=O)N[C@@H](C)C(=O)N[C@@H](CCCCN)C(=O)N[C@@H](Cc1ccccc1)C(=O)NCC(=O)N1CCC[C@H]1C(=O)N[C@@H](CCCCN)C(=O)N[C@@H](CC(C)C)C(=O)N[C@@H](Cc1ccccc1)C(=O)N[C@@H](CO)C(=O)N[C@@H](CC(C)C)C(=O)N[C@H](C(=O)N[C@H](C(=O)N[C@@H](CCCCN)C(=O)N[C@@H](CCCCN)C(=O)N[C@@H](CO)C(=O)O)[C@@H](C)O)C(C)C` [FLPILASLAAKFGPKLFSLVTKKS]: the minimal inhibitory concentration (MIC) was 25 µM (≈ 64.4 µg/mL) in experiment [14]; 40 µM (≈ 103 µg/mL) with Candida albicans; at least 40 µM against Candida krusei ATCC 6258; at least 40 µM in the experiment on Candida krusei; at least 40 µM in experiment [15]; at least 40 µM in the experiment with Candida parapsilosis. Also, the MIC in [16] is 10 µM (≈ 25.8 µg/mL); with Candida tropicalis, 20 µM (≈ 51.5 µg/mL); in [17], at least 40 µM; in [3], 20 µM (≈ 51.5 µg/mL); in [4], 50 µM (≈ 129 µg/mL); in [18], at least 40 µM. Further, the minimal inhibitory concentration (MIC) in experiment [19] is at least 40 µM; in [6], 40 µM (≈ 103 µg/mL); in experiment [9] it was 3 µM (≈ 7.73 µg/mL); in experiment [20] it was 5 µM (≈ 12.9 µg/mL).
`CC[C@H](C)[C@H](N)C(=O)N[C@@H](CCCCN)C(=O)N[C@@H](Cc1ccccc1)C(=O)N[C@@H](CCC(=O)O)C(=O)N1CCC[C@H]1C(=O)N1CCC[C@H]1C(=O)N[C@@H](CC(C)C)C(=O)N1CCC[C@H]1C(=O)N1CCC[C@H]1C(=O)N[C@@H](CCCCN)C(=O)N[C@@H](CCCCN)C(=O)N[C@@H](C)C(=O)N[C@@H](Cc1cnc[nH]1)C(N)=O` [IKFEPPLPPKKAH]: the MIC in experiment [21] was at least 42.6 µM; in [22], at least 42.6 µM; in experiment [23], 21.3 µM (≈ 32 µg/mL); in experiment [24], 21.3 µM (≈ 32 µg/mL); in [19] it was at least 42.6 µM; in experiment [25], 21.3 µM (≈ 32 µg/mL). Further, the values for the MIC in experiment [26], in experiment [27] and in experiment [28] were 42.6 µM (≈ 64 µg/mL), 42.6 µM (≈ 64 µg/mL) and at least 42.6 µM, respectively.
As to `CC[C@H](C)[C@H](NC(=O)[C@H](CC(C)C)NC(=O)[C@H](CCCN=C(N)N)NC(=O)[C@@H](NC(=O)[C@H](C)NC(=O)[C@H](CCCCN)NC(=O)[C@H](CO)NC(=O)[C@H](CC(C)C)NC(=O)[C@@H](N)CCC(=O)O)C(C)C)C(=O)N[C@@H](CCCCN)C(=O)O` [ELSKAVRLIK], the minimum inhibitory concentration (MIC) against Enterococcus faecium was found to be 10 µM (≈ 11.6 µg/mL); in the experiment on Escherichia coli O157 it was 20 µM (≈ 23.1 µg/mL); in the experiment on Pseudomonas aeruginosa 1 it was 20 µM (≈ 23.1 µg/mL); in the experiment with Pseudomonas aeruginosa 2 it was 10 µM (≈ 11.6 µg/mL); in the experiment on Pseudomonas aeruginosa 5, 14.1 µM (≈ 16.4 µg/mL); against Staphylococcus aureus 1, 10 µM (≈ 11.6 µg/mL). Also, the values for the MIC against Staphylococcus aureus 4, against Staphylococcus aureus 5 and against Staphylococcus aureus were 14.1 µM (≈ 16.4 µg/mL), at least 40 µM and 20 µM (≈ 23.1 µg/mL), respectively.

As usually defined, the MIC is the lowest concentration that inhibits growth of the organism.
